Literature values as cited in Sander's compilation of Henry's law constants (doi:10.1002/cite.330370802).

Tests used:
Conditions in all cases: reference: Irmann (1965); cited value
[1] = Henry solubility constant Hcp at 294 K (mol/(m3 Pa))
[2] = Henry solubility constant Hcp at 298.15 K (mol/(m3 Pa))
[3] = Henry solubility constant Hcp at 303 K (mol/(m3 Pa))
[4] = Henry solubility constant Hcp at 293 K (mol/(m3 Pa))

Row | Compound | Henry solubility constant Hcp [2] | also measured
1 | FC(F)(F)C(F)(Cl)Cl [1,1-dichlorotetrafluoroethane] | – | Henry solubility constant Hcp at 294 K [1]: 5.8e-06
2 | FC(F)(F)F [tetrafluoromethane] | 1.9e-06 | –
3 | FC(F)(F)CCl [2-chloro-1,1,1-trifluoroethane] | 0.00037 | –
4 | CCCl [chloroethane] | 0.00063 | –
5 | CC(F)F [1,1-difluoroethane] | – | Henry solubility constant Hcp at 294 K [1]: 0.00048
6 | FC(F)(F)Cl [chlorotrifluoromethane] | 5.7e-06 | –
7 | C=CC=C [1,3-butadiene] | 0.00015 | –
8 | CC(F)(F)Cl [1-chloro-1,1-difluoroethane] | – | Henry solubility constant Hcp at 294 K [1]: 0.00019
9 | FC(F)F [trifluoromethane] | 0.0001 | –
10 | FC(F)(F)C(F)(F)Cl [chloropentafluoroethane] | 3.2e-06 | –
11 | FC(F)(F)Br [bromotrifluoromethane] | 2e-05 | –
12 | FC(F)=C(F)F [tetrafluoroethene] | – | Henry solubility constant Hcp at 303 K [3]: 9.8e-06
13 | FC(F)(Cl)C(F)(F)Cl [1,2-dichlorotetrafluoroethane] | – | Henry solubility constant Hcp at 293 K [4]: 8.1e-06
14 | FC(F)(Cl)Cl [dichlorodifluoromethane] | 2.3e-05 | –
